Measurements taken from ChEMBL document CHEMBL4138123, “Design, synthesis and biological evaluation of novel pyrazolochalcones as potential modulators of PI3K/Akt/mTOR pathway and inducers of apoptosis in breast cancer cells” (Eur J Med Chem, 2017).

How the values were obtained:
Type in all cases: functional
SK-OV-3 = assay: Cytotoxicity against human SKOV3 cells assessed as cell growth at 10 uM after 48 hrs by sulforhodamine B assay relative to control; details: SK-OV-3, 48 h, read-out: Activity
PC-3 = assay: Cytotoxicity against human PC3 cells assessed as cell growth at 0.01 uM after 48 hrs by sulforhodamine B assay relative to control; details: PC-3, 48 h, read-out: Activity
OVCAR-4 = assay: Cytotoxicity against human OVCAR4 cells assessed as cell growth at 0.1 uM after 48 hrs by sulforhodamine B assay relative to control; details: OVCAR-4, 48 h, read-out: Activity
SK-MEL-2 = assay: Cytotoxicity against human SK-MEL-2 cells assessed as growth inhibition after 48 hrs by sulforhodamine B assay; details: SK-MEL-2, 48 h
HL-60(TB) = assay: Cytotoxicity against human HL-60(TB) cells assessed as cell growth at 0.01 uM after 48 hrs by sulforhodamine B assay relative to control; details: HL-60, 48 h, read-out: Activity
OVCAR-5 = assay: Cytotoxicity against human OVCAR5 cells assessed as cell growth at 1 uM after 48 hrs by sulforhodamine B assay relative to control; details: OVCAR-5, 48 h, read-out: Activity
U-251 [1] = assay: Cytotoxicity against human U251 cells assessed as cell growth at 0.1 uM after 48 hrs by sulforhodamine B assay relative to control; details: U-251, 48 h, read-out: Activity
BT-549 [2] = assay: Cytotoxicity against human BT549 cells assessed as cell growth at 0.1 uM after 48 hrs by sulforhodamine B assay relative to control; details: BT-549, 48 h, read-out: Activity
NCI-H322M = assay: Cytotoxicity against human NCI-H322M cells assessed as growth inhibition after 48 hrs by sulforhodamine B assay; details: for CC50: read-out: LC50 (the source's name)
Hs-578T = assay: Cytotoxicity against human Hs 578T cells assessed as cell growth at 10 uM after 48 hrs by sulforhodamine B assay relative to control; details: read-out: Activity
CCRF-CEM = assay: Cytotoxicity against human CCRF-CEM cells assessed as cell growth at 100 uM after 48 hrs by sulforhodamine B assay relative to control; details: read-out: Activity
MDA-MB-435 = assay: Cytotoxicity against human MDA-MB-435 cells assessed as cell growth at 100 uM after 48 hrs by sulforhodamine B assay relative to control; details: MDA-MB-435, 48 h, read-out: Activity
IGROV-1 [3] = assay: Cytotoxicity against human IGROV1 cells assessed as cell growth at 0.1 uM after 48 hrs by sulforhodamine B assay relative to control; details: IGROV-1, 48 h, read-out: Activity
UACC-257 = assay: Cytotoxicity against human UACC257 cells assessed as growth inhibition after 48 hrs by sulforhodamine B assay; details: UACC-257, 48 h
RXF 393 = assay: Cytotoxicity against human RXF393 cells assessed as growth inhibition after 48 hrs by sulforhodamine B assay; details: RXF 393, 48 h
MDA-MB-231 = assay: Cytotoxicity against human MDA-MB-231 cells assessed as cell growth at 0.01 uM after 48 hrs by sulforhodamine B assay relative to control; details: MDA-MB-231, 48 h, read-out: Activity
SK-MEL-5 = assay: Cytotoxicity against human SK-MEL-5 cells assessed as cell growth at 0.1 uM after 48 hrs by sulforhodamine B assay relative to control; details: SK-MEL-5, 48 h, read-out: Activity
BT-549 [4] = assay: Cytotoxicity against human BT549 cells assessed as cell growth at 100 uM after 48 hrs by sulforhodamine B assay relative to control; details: BT-549, 48 h, read-out: Activity
NCI-H460 = assay: Cytotoxicity against human NCI-H460 cells assessed as cell growth at 10 uM after 48 hrs by sulforhodamine B assay relative to control; details: NCI-H460, 48 h, read-out: Activity
NCI/ADR-RES = assay: Cytotoxicity against human NCI/ADR-RES cells assessed as cell growth at 10 uM after 48 hrs by sulforhodamine B assay relative to control; details: read-out: Activity
SW-620 = assay: Cytotoxicity against human SW620 cells assessed as growth inhibition after 48 hrs by sulforhodamine B assay; details: SW-620, 48 h
HCT-15 = assay: Cytotoxicity against human HCT15 cells assessed as cell growth at 10 uM after 48 hrs by sulforhodamine B assay relative to control; details: HCT-15, 48 h, read-out: Activity
HCT-116 = assay: Cytotoxicity against human HCT116 cells assessed as cell growth at 0.1 uM after 48 hrs by sulforhodamine B assay relative to control; details: HCT-116, 48 h, read-out: Activity
HOP-62 = assay: Cytotoxicity against human HOP62 cells assessed as cell growth at 0.1 uM after 48 hrs by sulforhodamine B assay relative to control; details: HOP-62, 48 h, read-out: Activity
RPMI-8226 = assay: Cytotoxicity against human RPMI8226 cells assessed as cell growth at 0.1 uM after 48 hrs by sulforhodamine B assay relative to control; details: RPMI-8226, 48 h, read-out: Activity
SF-268 = assay: Cytotoxicity against human SF268 cells assessed as cell growth at 1 uM after 48 hrs by sulforhodamine B assay relative to control; details: SF-268, 48 h, read-out: Activity
U-251 [5] = assay: Cytotoxicity against human U251 cells assessed as cell growth at 1 uM after 48 hrs by sulforhodamine B assay relative to control; details: U-251, 48 h, read-out: Activity
MOLT-4 [6] = assay: Cytotoxicity against human MOLT4 cells assessed as growth inhibition after 48 hrs by sulforhodamine B assay; details: MOLT-4, 48 h; for CC50: read-out: LC50 (the source's name)
TK-10 = assay: Cytotoxicity against human TK10 cells assessed as cell growth at 1 uM after 48 hrs by sulforhodamine B assay relative to control; details: TK-10, 48 h, read-out: Activity
IGROV-1 [7] = assay: Cytotoxicity against human IGROV1 cells assessed as cell growth at 100 uM after 48 hrs by sulforhodamine B assay relative to control; details: IGROV-1, 48 h, read-out: Activity
MOLT-4 [8] = assay: Cytotoxicity against human MOLT4 cells assessed as cell growth at 10 uM after 48 hrs by sulforhodamine B assay relative to control; details: MOLT-4, 48 h, read-out: Activity
COLO 205 = assay: Cytotoxicity against human COLO205 cells assessed as growth inhibition after 48 hrs by sulforhodamine B assay; details: COLO 205, 48 h
ACHN = assay: Cytotoxicity against human ACHN cells assessed as cell growth at 1 uM after 48 hrs by sulforhodamine B assay relative to control; details: read-out: Activity
DU-145 = assay: Cytotoxicity against human DU145 cells assessed as growth inhibition after 48 hrs by sulforhodamine B assay; details: DU-145, 48 h

For `COc1cc(-c2cc(/C=C/C(=O)c3ccc(F)c(F)c3)[nH]n2)cc(OC)c1OC`, the growth at 10 µM (SK-OV-3) was 17%, the growth at 0.01 µM (PC-3) was 98% and the growth at 0.1 µM (OVCAR-4) was 111%. It also gave an LC50 (concentration killing 50% of cells) (SK-MEL-2) of 41.1 µM, a TGI (SK-MEL-2) of 5.89 µM and a growth at 0.01 µM (HL-60(TB)) of 102%. The growth at 1 µM (OVCAR-5) was 92%, the growth at 0.1 µM (U-251 [1]) was 96% and the growth at 0.1 µM (BT-549 [2]) was 105%. It also gave a TGI (NCI-H322M) greater than 100 µM, a CC50 (NCI-H322M) greater than 100 µM and a growth at 10 µM (Hs-578T) of 21%. The growth at 100 µM (CCRF-CEM) was -4%, the growth at 100 µM (MDA-MB-435) was -34% and the growth at 0.1 µM (IGROV-1 [3]) was 97%. The LC50 (UACC-257) was greater than 100 µM, the TGI (UACC-257) was 6.28 µM and the LC50 (concentration killing 50% of cells) (RXF 393) was 54.1 µM. For the same molecule, the TGI (RXF 393) was 6.34 µM, the growth at 0.01 µM (MDA-MB-231) was 94% and the growth at 0.1 µM (SK-MEL-5) was 96%. It also gave a growth at 100 µM (BT-549 [4]) of -58%, a growth at 10 µM (NCI-H460) of -9% and a growth at 10 µM (NCI/ADR-RES) of 11%. It also gave an LC50 (lethal concentration, 50% net cell kill) (SW-620) greater than 100 µM, a TGI (SW-620) greater than 100 µM and a growth at 10 µM (HCT-15) of 9%. For the same molecule, the growth at 0.1 µM (HCT-116) was 102%, the growth at 0.1 µM (HOP-62) was 101% and the growth at 0.1 µM (RPMI-8226) was 90%. For the same molecule, the growth at 1 µM (SF-268) was 83%, the growth at 1 µM (U-251 [5]) was 87% and the TGI (MOLT-4 [6]) was 9.09 µM. It also gave a CC50 (MOLT-4 [6]) greater than 100 µM, a growth at 1 µM (TK-10) of 85% and a growth at 100 µM (IGROV-1 [7]) of -1%. For the same molecule, the growth at 10 µM (MOLT-4 [8]) was -4%, the LC50 (COLO 205) was 6 µM and the TGI (COLO 205) was 3.19 µM. For the same molecule, the growth at 1 µM (ACHN) was 100%.

For `COc1ccc(-c2cc(/C=C/C(=O)c3ccc(N)cc3)[nH]n2)cc1`, the growth at 10 µM (SK-OV-3) was 23%, the growth at 0.01 µM (PC-3) was 95% and the growth at 0.1 µM (OVCAR-4) was 105%. For the same molecule, the growth at 0.01 µM (HL-60(TB)) was 96%, the growth at 1 µM (OVCAR-5) was 92% and the growth at 0.1 µM (U-251 [1]) was 90%. The growth at 0.1 µM (BT-549 [2]) was 96%, the GI50 (NCI-H322M) was 1840 nM and the TGI (NCI-H322M) was 9.27 µM. For the same molecule, the CC50 (NCI-H322M) was 31.6 µM, the growth at 10 µM (Hs-578T) was 22% and the growth at 100 µM (CCRF-CEM) was -68%. The growth at 100 µM (MDA-MB-435) was -75%, the growth at 0.1 µM (IGROV-1 [3]) was 91% and the GI50 (UACC-257) was 1900 nM. It also gave an LC50 (UACC-257) of 9.36 µM, a TGI (UACC-257) of 4.21 µM and a GI50 (RXF 393) of 1670 nM. The LC50 (concentration killing 50% of cells) (RXF 393) was 15 µM, the TGI (RXF 393) was 4.19 µM and the growth at 0.01 µM (MDA-MB-231) was 93%. It also gave a growth at 0.1 µM (SK-MEL-5) of 90%, a growth at 100 µM (BT-549 [4]) of -61% and a growth at 10 µM (NCI-H460) of -40%. The growth at 10 µM (NCI/ADR-RES) was 9%, the GI50 (SW-620) was 1690 nM and the LC50 (lethal concentration, 50% net cell kill) (SW-620) was 56.2 µM. For the same molecule, the TGI (SW-620) was 5.41 µM, the growth at 10 µM (HCT-15) was -40% and the growth at 0.1 µM (HCT-116) was 105%. The growth at 0.1 µM (HOP-62) was 100%, the growth at 0.1 µM (RPMI-8226) was 100% and the growth at 1 µM (SF-268) was 78%. For the same molecule, the growth at 1 µM (U-251 [5]) was 65%, the GI50 (MOLT-4 [6]) was 2320 nM and the TGI (MOLT-4 [6]) was 9.48 µM. The CC50 (MOLT-4 [6]) was greater than 100 µM, the growth at 1 µM (TK-10) was 81% and the growth at 100 µM (IGROV-1 [7]) was -67%. It also gave a growth at 10 µM (MOLT-4 [8]) of -2%, a GI50 (DU-145) of 1320 nM and a TGI (DU-145) of 3.46 µM. It also gave a CC50 (DU-145; read-out: LC50 (the source's name)) of 9.11 µM, a GI50 (COLO 205) of 1850 nM and an LC50 (COLO 205) of 6.41 µM. For the same molecule, the TGI (COLO 205) was 3.45 µM and the growth at 1 µM (ACHN) was 71%.
